Source: ChEMBL document CHEMBL5634101, “Discovery of NLRP3 inhibitors using machine learning: Identification of a hit compound to treat NLRP3 activation-driven diseases” (Eur J Med Chem, 2023)

Target: NACHT, LRR and PYD domains-containing protein 3 (Homo sapiens, UniProt Q96P20)
Assay: Inhibition of NLRP3 inflammasome activation in PMA-differentiated human THP-1 cells assessed as reduction in IL-1beta secretion pre-stimulated with PMA for 24 hrs followed by compound addition and measured after 30 mins by ELISA
Assay type: cell-based

NACHT, LRR and PYD domains-containing protein 3, sequence (Q96P20 whole entry, the tested form may be a part): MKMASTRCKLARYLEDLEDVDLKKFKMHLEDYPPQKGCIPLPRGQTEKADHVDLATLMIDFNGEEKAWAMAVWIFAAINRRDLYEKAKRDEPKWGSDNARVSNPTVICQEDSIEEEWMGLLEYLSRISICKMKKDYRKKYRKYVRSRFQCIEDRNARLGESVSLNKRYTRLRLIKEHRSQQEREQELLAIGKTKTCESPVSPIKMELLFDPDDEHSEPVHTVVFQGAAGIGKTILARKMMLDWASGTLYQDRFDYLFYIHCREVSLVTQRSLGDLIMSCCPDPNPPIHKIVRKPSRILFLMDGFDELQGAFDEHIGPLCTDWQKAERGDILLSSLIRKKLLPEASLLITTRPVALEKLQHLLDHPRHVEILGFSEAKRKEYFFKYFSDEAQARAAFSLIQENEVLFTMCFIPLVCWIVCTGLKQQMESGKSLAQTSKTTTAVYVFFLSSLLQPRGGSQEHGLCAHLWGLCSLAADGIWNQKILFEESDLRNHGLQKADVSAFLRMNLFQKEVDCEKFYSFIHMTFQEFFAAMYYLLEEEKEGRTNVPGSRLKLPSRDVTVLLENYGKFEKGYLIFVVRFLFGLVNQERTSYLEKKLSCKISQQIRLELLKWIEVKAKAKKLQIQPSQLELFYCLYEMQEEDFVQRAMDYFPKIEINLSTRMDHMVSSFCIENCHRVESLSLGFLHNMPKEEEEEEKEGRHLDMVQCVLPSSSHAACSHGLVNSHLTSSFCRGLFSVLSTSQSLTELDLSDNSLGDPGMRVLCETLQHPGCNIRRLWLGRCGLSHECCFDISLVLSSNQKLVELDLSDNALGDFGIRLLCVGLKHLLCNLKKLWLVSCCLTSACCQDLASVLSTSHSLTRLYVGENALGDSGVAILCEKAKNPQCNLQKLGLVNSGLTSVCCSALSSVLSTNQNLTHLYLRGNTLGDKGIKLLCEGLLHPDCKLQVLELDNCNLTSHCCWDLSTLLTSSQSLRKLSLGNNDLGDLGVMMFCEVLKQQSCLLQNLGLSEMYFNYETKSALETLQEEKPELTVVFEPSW

- IC50: 13.9 µM
Compound: O=C(O)CCCCCN1C(=O)/C(=C/c2c[nH]c3ccccc23)SC1=S
